Results from patent US7897778B2, “Benzamide compounds” (AstraZeneca, priority 2004, dated 2011).

Columns and labels:
HCT116 cells = test: In vitro assay of inhibition of proliferation in whole cells (MTS); type: cell-based; details: Homo sapiens, HCT-116, 72 hours treatment, read-out: Test (b) IC50
Method: (b) In Vitro Assay of Inhibition of Proliferation in Whole Cells
Inhibition of proliferation in whole cells was assayed using the Promega cell titer 96 aqueous proliferation assay (Promega #G5421). The HCT116 cells were seeded in 96 well plates at 1×10^3 cells/well, and allowed to adhere overnight. They were treated with inhibitors for 72 hours. The 20 μl of the tetrazolium dye MTS was added to each well and the plates were reincubated for 3 hours. Absorbance was then measured on a 96 well plate reader at […]. The IC50 values for HDAC inhibitors were determined by performing dose response curves with individual compounds and determining the concentration of inhibitor producing fifty percent decrease in maximal signal (diluent control).

recombinant human HDAC1 = molecular target: T1, recombinant human HDAC1 (Homo sapiens, UniProt Q13547); test: In vitro enzyme assay of recombinant HDAC1; type: biochemical; details: recombinant human HDAC1 produced in Hi5 insect cells; acetylated histone H4 peptide, Fluor de Lys; read-out: Test (a) IC50
T1 construct: FLAG (C); made in house; host or cells: Hi5 insect cells
T1 sequence (Q13547 whole entry): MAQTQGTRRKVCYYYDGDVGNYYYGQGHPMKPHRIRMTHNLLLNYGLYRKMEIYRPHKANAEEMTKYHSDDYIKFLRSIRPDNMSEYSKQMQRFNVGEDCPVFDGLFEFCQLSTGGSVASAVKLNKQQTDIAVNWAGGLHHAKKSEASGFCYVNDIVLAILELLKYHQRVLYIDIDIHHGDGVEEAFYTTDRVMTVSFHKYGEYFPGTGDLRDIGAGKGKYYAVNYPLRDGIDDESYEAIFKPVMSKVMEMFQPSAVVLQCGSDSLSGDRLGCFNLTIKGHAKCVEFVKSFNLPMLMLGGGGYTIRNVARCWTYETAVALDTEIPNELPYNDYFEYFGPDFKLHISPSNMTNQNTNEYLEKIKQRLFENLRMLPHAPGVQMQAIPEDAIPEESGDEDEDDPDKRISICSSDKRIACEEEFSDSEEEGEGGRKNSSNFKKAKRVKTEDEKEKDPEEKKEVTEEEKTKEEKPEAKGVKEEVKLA
Method: (a) In Vitro Enzyme Assay of recombinant HDAC1
HDAC inhibitors were screened against recombinant human HDAC1 produced in Hi5 insect cells. The enzyme was cloned with a FLAG tag at the C-terminal of the gene and affinity purified using Anti-FLAG M2 agarose from SIGMA (A2220).
The deacetylase assays were carried out in a 50 μl reaction. HDAC1 (75 ng of enzyme) diluted in 15 μl of reaction buffer (25 mM Tris HCl (pH 8), 137 mM NaCl, 2.7 mM KCl, 1 mM MgCl2) was mixed with either buffer alone (10 μl) or buffer containing compound (10 μl) for 30 minutes at ambient temperature. The 25 μM acetylated histone H4 peptide (KI 174 Biomol) diluted in 25 μl of buffer was then added to the reaction and incubated for one hour at ambient temperature. The reaction was stopped by addition of an equal volume (50 μl) Fluor de Lys developer (Biomol) containing Trichostatin A at 2 μM. The reaction was allowed to develop for 30 minutes at ambient temperature and then fluorescence measured at an excitation wavelength of 360 nm and an emission wavelength of 465 nm. The IC50 values for HDAC enzyme inhibitors were determined by performing dose response curves with individual compounds and determining the concentration of inhibitor producing fifty percent decrease in the maximal signal (diluent control).

Compound | IC50 (HCT116 cells) [nM] | IC50 (recombinant human HDAC1) [nM]
N#Cc1cc(CN2CCC(c3ccccn3)C2)cnc1-c1ccc(C(=O)Nc2ccccc2N)cc1 (centres unmarked) [2 (10), N-(2-aminophenyl)-4-{3-cyano-5-[(3-pyridin-2-ylpyrrolidin-1-yl)methyl]pyridin-2-yl}benzamide] | 211 | 3
C[C@@H]1CC[C@@H](C)N1Cc1cnc(-c2ccc(C(=O)Nc3ccccc3N)cc2)c(C#N)c1 [2 (12), N-(2-aminophenyl)-4-(3-cyano-5-{[(2R,5R)-2,5-dimethylpyrrolidin-1-yl]methyl}pyridin-2-yl)benzamide] | 218 | 6
CC(C)N(C)Cc1cnc(-c2ccc(C(=O)Nc3ccccc3N)cc2)c(C#N)c1 [5 (15), N-(2-aminophenyl)-4-(3-cyano-5-{[isopropyl(methyl)amino]methyl}pyridin-2-yl)benzamide] | 287 | 12
N#Cc1cccnc1-c1ccc(C(=O)Nc2ccccc2N)cc1 [Example 1, N-(2-aminophenyl)-4-(3-cyanopyridin-2-yl)benzamide] | 289 | 13
